Biological target: GluA1o-γ8 (GRIA1o-CACNG8 fusion construct; TARP γ8 dependent AMPA receptor) (Homo sapiens (Human), UniProt P42261+Q8WXS5)
Experiment: Calcium flux assay (FLIPR), inhibition of glutamate response of GluA1o-γ8 channel
Type: cell-based
Details: HEK293 cells stably expressing GRIA1o-CACNG8 fusion; 15 μM glutamate; pIC50 = negative log of IC50 in molar; read-out: GluR1-γ8 (pIC50) (converted)
In short: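 Potency is the midpoint of a four-parameter logistic fit to control-normalized FLIPR calcium responses elicited by 15 μM glutamate. Stable HEK293 cells carried a fused GluA1o-γ8 construct and were preincubated with compound and calcium dye in pH 7.4 HEPES buffer.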

Chain of GluA1o-γ8 (GRIA1o-CACNG8 fusion construct; TARP γ8 dependent AMPA receptor) (P42261 other isoform, or with tags, fused parts or gaps): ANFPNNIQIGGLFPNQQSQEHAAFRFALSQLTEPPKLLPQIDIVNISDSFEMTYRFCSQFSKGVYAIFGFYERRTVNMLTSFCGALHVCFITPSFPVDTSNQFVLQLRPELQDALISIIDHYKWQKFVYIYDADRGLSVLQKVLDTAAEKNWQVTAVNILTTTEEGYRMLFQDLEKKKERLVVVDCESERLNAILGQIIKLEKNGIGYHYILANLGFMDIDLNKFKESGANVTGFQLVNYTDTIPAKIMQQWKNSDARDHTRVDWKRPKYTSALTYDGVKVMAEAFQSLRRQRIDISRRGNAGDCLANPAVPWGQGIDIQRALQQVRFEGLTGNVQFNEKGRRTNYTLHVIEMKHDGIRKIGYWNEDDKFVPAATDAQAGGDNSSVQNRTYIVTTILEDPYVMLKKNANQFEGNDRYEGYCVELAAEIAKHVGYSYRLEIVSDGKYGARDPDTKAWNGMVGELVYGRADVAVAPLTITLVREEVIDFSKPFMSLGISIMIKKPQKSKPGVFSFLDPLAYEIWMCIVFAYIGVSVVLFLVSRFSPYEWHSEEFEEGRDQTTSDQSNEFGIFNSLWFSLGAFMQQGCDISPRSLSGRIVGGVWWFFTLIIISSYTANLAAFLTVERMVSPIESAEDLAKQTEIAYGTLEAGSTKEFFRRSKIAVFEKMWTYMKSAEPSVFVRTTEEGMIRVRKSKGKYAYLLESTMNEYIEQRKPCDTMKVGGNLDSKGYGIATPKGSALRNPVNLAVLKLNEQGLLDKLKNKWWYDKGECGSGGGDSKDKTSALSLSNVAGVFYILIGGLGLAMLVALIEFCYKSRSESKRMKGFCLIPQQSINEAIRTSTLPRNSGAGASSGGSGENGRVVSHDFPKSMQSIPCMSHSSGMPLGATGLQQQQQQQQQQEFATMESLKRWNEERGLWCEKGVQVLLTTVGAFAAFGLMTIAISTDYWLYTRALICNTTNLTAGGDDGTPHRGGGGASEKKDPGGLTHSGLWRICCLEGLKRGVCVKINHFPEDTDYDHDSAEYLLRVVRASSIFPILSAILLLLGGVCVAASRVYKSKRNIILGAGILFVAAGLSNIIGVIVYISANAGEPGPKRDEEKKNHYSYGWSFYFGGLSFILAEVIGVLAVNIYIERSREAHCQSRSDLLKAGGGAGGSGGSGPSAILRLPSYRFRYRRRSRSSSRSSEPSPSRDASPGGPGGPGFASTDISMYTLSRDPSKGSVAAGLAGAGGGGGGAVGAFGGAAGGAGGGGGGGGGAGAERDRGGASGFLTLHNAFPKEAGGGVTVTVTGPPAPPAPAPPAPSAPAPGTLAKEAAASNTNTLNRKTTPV

IC50 [nM]	SMILES
1.26	CN1CCN(c2nccn3c(-c4ccc5c(c4)CC(=O)N5)c(-c4ccc(F)cc4)nc23)CC1=O [Example 110, 5-(2-(4-fluorophenyl)-8-(4-methyl-3-oxopiperazin-1-yl)imidazo[1,2-a]pyrazin-3-yl)indolin-2-one]
31.6	O=C1CN(c2nccn3c(-c4ccc5c(c4)CC(=O)N5)c(C(=O)c4ccccc4)nc23)CCN1 [Example 246, 5-[2-Benzoyl-8-(3-oxopiperazin-1-yl)imidazo[1,2-a]pyrazin-3-yl]indolin-2-one]
0.794	CC(C)(C)OC(=O)N1CCN(c2ncc(Br)n3c(-c4ccc5c(c4)CC(=O)N5)c(Cc4ccccc4)nc23)CC1 [Example 112, tert-Butyl 4-(2-benzyl-5-bromo-3-(2-oxoindolin-5-yl)imidazo[1,2-a]pyrazin-8-yl)piperazine-1-carboxylate]
1.26	O=C1Cc2cc(-c3c(-c4ccccc4)nn4c(N5CC[C@@H](O)[C@@H](F)C5)nccc34)ccc2N1 (relative stereo) [Example 204, (cis)-5-[7-(3-Fluoro-4-hydroxy-1-piperidyl)-2-phenyl-pyrazolo[1,5-c]pyrimidin-3-yl]indolin-2-one]
501	O=c1[nH]c2ccc(-c3c(C4CC4)nc4cnc(C(F)(F)F)cn34)cc2s1 [Example 216, 6-[2-Cyclopropyl-6-(trifluoromethyl)imidazo[1,2-a]pyrazin-3-yl]-3H-1,3-benzothiazol-2-one]
3.98	N#CC1CN(c2nccn3c(-c4ccc5c(c4)CC(=O)N5)c(-c4ccc(F)cc4)nc23)C1 [Example 66, 1-[2-(4-Fluorophenyl)-3-(2-oxoindolin-5-yl)imidazo[1,2-a]pyrazin-8-yl]azetidine-3-carbonitrile]
0.0501	O=c1[nH]c2ccc(-c3c(-c4ccccc4)nn4c(N5CCOCC5)nccc34)cc2s1 [Example 242, 6-(7-Morpholino-2-phenyl-pyrazolo[1,5-c]pyrimidin-3-yl)-3H-1,3-benzothiazol-2-one]
2	N#Cc1ccc(-c2nc3c(N4CCNC(=O)C4)nccn3c2-c2ccc3[nH]ncc3c2)cc1 [Example 209, 4-[3-(1H-Indazol-5-yl)-8-(3-oxopiperazin-1-yl)imidazo[1,2-a]pyrazin-2-yl]benzonitrile]
2.51	CC(=O)N[C@H]1CCN(c2nccn3c(-c4ccc5[nH]c(=O)[nH]c5c4)c(-c4ccc(F)cc4)nc23)C1 [Example 98, N-[(3S)-1-[2-(4-Fluorophenyl)-3-(2-oxo-1,3-dihydrobenzimidazol-5-yl)imidazo[1,2-a]pyrazin-8-yl]pyrrolidin-3-yl]acetamide]
1.26	N#Cc1ccc(-c2nc3c(N4CCOCC4)nccn3c2-c2ccc3[nH]c(=O)[nH]c3c2)cc1 [Example 105, 4-[8-Morpholino-3-(2-oxo-1,3-dihydrobenzimidazol-5-yl)imidazo[1,2-a]pyrazin-2-yl]benzonitrile]
158	O=C1Cc2cc(-c3c(C4CCCC4)nn4c(N5CC(F)C5)nccc34)ccc2N1 [Example 196, 5-[2-Cyclopentyl-7-(3-fluoroazetidin-1-yl)pyrazolo[1,5-c]pyrimidin-3-yl]indolin-2-one]
7.94	O=C1Cc2cc(-c3c(-c4ccc(F)cc4)nc4c(N5CCOC(C(F)(F)F)C5)nccn34)ccc2N1 (stereo not drawn) [Example 42, 5-[2-(4-Fluorophenyl)-8-[2-(trifluoromethyl)morpholin-4-yl]imidazo[1,2-a]pyrazin-3-yl]indolin-2-one]
631	C[S+]([O-])c1nccn2c(-c3ccc4c(c3)CC(=O)N4)c(-c3ccc(F)cc3)nc12 (stereo not drawn) [Example 128, 5-[2-(4-Fluorophenyl)-8-methylsulfinyl-imidazo[1,2-a]pyrazin-3-yl]indolin-2-one]
31.6	O=C(NC1CCCCC1)c1nc2c(N3CCOCC3)nccn2c1-c1ccc2[nH]c(=O)[nH]c2c1 [Example 214, N-Cyclohexyl-8-morpholino-3-(2-oxo-1,3-dihydrobenzimidazol-5-yl)imidazo[1,2-a]pyrazine-2-carboxamide]
0.316	O=C1Cc2cc(-c3c(C(=O)c4ccccc4)nc4c(N5CCOCC5)nccn34)ccc2N1 [Example 153, 5-(2-Benzoyl-8-morpholino-imidazo[1,2-a]pyrazin-3-yl)indolin-2-one]
7.94	O=C1Nc2ccc(-c3c(-c4ccc(F)cc4)nc4c(N5CCOCC5)nccn34)cc2CO1 [Example 124, 6-[2-(4-fluorophenyl)-8-morpholino-imidazo[1,2-a]pyrazin-3-yl]-1,4-dihydro-3,1-benzoxazin-2-one]
0.501	O=C1Cc2cc(-c3c(-c4ccc(F)cc4)nn4c(N5CCOCC5)nccc34)ccc2N1 [Example 164, 5-[2-(4-Fluorophenyl)-7-morpholino-pyrazolo[1,5-c]pyrimidin-3-yl]indolin-2-one]
2	O=C1Cc2cc(-c3c(-c4ccc(F)cc4)nn4c(N5CC(CO)C5)nccc34)ccc2N1 [Example 180, 5-[2-(4-Fluorophenyl)-7-[3-(hydroxymethyl)azetidin-1-yl]pyrazolo[1,5-c]pyrimidin-3-yl]indolin-2-one]

IC50 [nM]	SMILES
0.398	c1ccc(-c2nn3c(N4CCOCC4)nccc3c2-c2ccc3[nH]ncc3c2)cc1 [Example 233, 4-[3-(1H-Indazol-5-yl)-2-phenyl-pyrazolo[1,5-c]pyrimidin-7-yl]morpholine]
2.51	COC1CN(c2nccc3c(-c4ccc5c(c4)CC(=O)N5)c(-c4ccccc4)nn23)C1 [Example 191, 5-[7-(3-Methoxyazetidin-1-yl)-2-phenyl-pyrazolo[1,5-c]pyrimidin-3-yl]indolin-2-one]
1.58	O=C1Cc2cc(-c3c(-c4ccc(F)cc4)nc4c(N5CC(Cl)C5)nccn34)ccc2N1 [Example 61, 5-[8-(3-Chloroazetidin-1-yl)-2-(4-fluorophenyl)imidazo[1,2-a]pyrazin-3-yl]indolin-2-one]
501	CN1CCN(c2nccn3c(-c4ccc(O)cc4)c(-c4ccc(F)cc4)nc23)CC1 [Example 6, 4-[2-(4-Fluorophenyl)-8-(4-methylpiperazin-1-yl)imidazo[1,2-a]pyrazin-3-yl]phenol]
0.251	O=C1Cc2cc(-c3c(-c4ccc(F)cc4)nc4c(N5CCC(O)C(F)(F)C5)nccn34)ccc2N1 (stereo not drawn) [Example 71, 5-[8-(3,3-Difluoro-4-hydroxy-1-piperidyl)-2-(4-fluorophenyl)imidazo[1,2-a]pyrazin-3-yl]indolin-2-one]
158	CC(=O)N1CC=C(c2nccn3c(-c4ccc(O)cc4)c(-c4ccc(F)cc4)nc23)CC1 [Example 130, 1-[4-[2-(4-Fluorophenyl)-3-(4-hydroxyphenyl)imidazo[1,2-a]pyrazin-8-yl]-3,6-dihydro-2H-pyridin-1-yl]ethanone]
0.316	CC(C)(C)OC(=O)N1CCN(c2nccn3c(-c4ccc5c(c4)CC(=O)N5)c(Cc4ccccc4)nc23)CC1 [Example 36, tert-Butyl 4-[2-benzyl-3-(2-oxoindolin-5-yl)imidazo[1,2-a]pyrazin-8-yl]piperazine-1-carboxylate]
2.51	CO[C@@H]1CCN(c2nccc3c(-c4ccc5c(c4)CC(=O)N5)c(-c4ccccc4)nn23)C1 [Example 202, 5-[7-[(3R)-3-Methoxypyrrolidin-1-yl]-2-phenyl-pyrazolo[1,5-c]pyrimidin-3-yl]indolin-2-one]
31.6	O=C1Cc2cc(-c3c(C(=O)NCc4ccccc4)nc4c(N5CCOCC5)nccn34)ccc2N1 [Example 142, N-Benzyl-8-morpholino-3-(2-oxoindolin-5-yl)imidazo[1,2-a]pyrazine-2-carboxamide]
25.1	CC(=O)N1CCCN(c2nccn3c(-c4ccc(O)cc4)c(-c4ccc(Cl)cc4)nc23)CC1 [Example 92, 1-[4-[2-(4-Chlorophenyl)-3-(4-hydroxyphenyl)imidazo[1,2-a]pyrazin-8-yl]-1,4-diazepan-1-yl]ethanone]
1.26	O=c1[nH]c2ccc(-c3c(-c4ccc(F)cc4)nn4c(N5CCOCC5)nccc34)cc2o1 [Example 173, 6-[2-(4-Fluorophenyl)-7-morpholino-pyrazolo[1,5-c]pyrimidin-3-yl]-3H-1,3-benzoxazol-2-one]
126	COC1CCN(c2nccc3c(-c4ccc5[nH]ncc5c4)c(C(C)C)nn23)CC1 [Example 237, 3-(1H-indazol-5-yl)-2-isopropyl-7-(4-methoxy-1-piperidyl)pyrazolo[1,5-c]pyrimidine]
3.16	O=C1Cc2cc(-c3c(-c4ccccc4)nn4c(N5CC(F)C5)nccc34)ccc2N1 [Example 200, 5-[7-(3-Fluoroazetidin-1-yl)-2-phenyl-pyrazolo[1,5-c]pyrimidin-3-yl]indolin-2-one]
631	O=C1Cc2cc(-c3c(-c4ccc(F)cc4)nc4c(F)nccn34)ccc2N1 [Example 132, 5-[8-Fluoro-2-(4-fluorophenyl)imidazo[1,2-a]pyrazin-3-yl]indolin-2-one]
6.31	O=C1Cc2cc(-c3c(-c4ccc(F)cc4)nn4c(N5CC(O)C5)nccc34)ccc2N1 [Example 179, 5-[2-(4-Fluorophenyl)-7-(3-hydroxyazetidin-1-yl)pyrazolo[1,5-c]pyrimidin-3-yl]indolin-2-one]
15.8	CC(C)c1nn2c(N3CCOCC3)nccc2c1-c1ccc2[nH]c(=O)sc2c1 [Example 240, 6-(2-Isopropyl-7-morpholino-pyrazolo[1,5-c]pyrimidin-3-yl)-3H-1,3-benzothiazol-2-one]
398	COc1nccc2c(-c3ccc4c(c3)CC(=O)N4)c(-c3ccccc3)nn12 [Example 206, 5-(7-Methoxy-2-phenyl-pyrazolo[1,5-c]pyrimidin-3-yl)indolin-2-one]
0.2	O=C1Cc2cc(-c3c(-c4ccc(F)cc4)nn4c(N5CCC(F)CC5)nccc34)ccc2N1 [Example 190, 5-[2-(4-Fluorophenyl)-7-(4-fluoro-1-piperidyl)pyrazolo[1,5-c]pyrimidin-3-yl]indolin-2-one]

Source: patent US10513523B2, “Imidazopyrazines and pyrazolopyrimidines and their use as AMPA receptor modulators” (Janssen Pharmaceutica NV, priority 2015, dated 2019)
